# Measured values taken from patent publication US6420330B1, “Use of quaternary carboxylic acid alkanolamine ester salts as microbicide agents” (Cognis Deutschland GmbH, priority 1997, dated 2002).
# Key:
# Assay in all cases: DGHM suspension test, other bacteria and fungi
# Format in all cases: cell-based
# Escherichia coli = system: Escherichia coli
# Procedure: (§1) The effectiveness of the compound to be tested was determined by the suspension test in accordance with the guidelines of the Deutsche Gesellschaft for Hygiene and Mikrobiologie (DGHM). Test solutions containing quatemary carboxylic acid alkanolamine ester salts in the quantities shown in the Tables of 50, 100, 200, 400 and 800 mg/l were prepared using water with a hardness of 17° dH and optionally isopropanol. At room temperatures, quantities of 0.1 ml test germ suspension were pipetted into test tubes containing 10 ml of the test solutions described above and mixed. After various contact times of 5, 15, 30 and 60 minutes, 1 ml of material was taken from the test tubes by pipette and transferred to 9 ml inactivator solution (inactivators: 3.0% Tween, 0.3% lecithin, 0.1% histidine). After in activation for at least 5 and at most 30 minutes, the living germ count was determined by plating out onto casein peptone-soybean flour peptone (CaSo)-agar plates. Using a spiral plater, the inactivating mixture was directly plated out onto CaSo-agar. The samples were incubated for 24 to 72 hours at 37° C. and macroscopically evaluated for growth. The destruction time or the residual germ count was determined in this way. The germ count of an unchallenged water control is related to the germ count of the inactivated test solution taking the dilution into account. The higher the value, the better the microbicidal effect. The symbol < means that the logarithmic reductuon factor is below the indicated value or, in the case of the symbol >, above the indicated value. The abbreviation CU stands for “concentration used”. Methyl triethanolammonium dioctanoic acid ester methosulfate was tested as in A) against the bacteria
# [1] = system: Trichophyton mentagrophytes
# Procedure: as §1
# Enterococcus faecium = system: Enterococcus faecium
# Procedure: as §1
# Salmonella enteritidis = system: Salmonella enteritidis
# Procedure: as §1
# Microsporum gypseum = system: Microsporum gypseum
# Procedure: as §1
structure (smiles),measurement,setting,value
"CCCCCCCC(=O)OCC[N+](C)(CCO)CCOC(=O)CCCCCCC.COS(=O)(=O)[O-] [Example 11, Methyl triethanolammonium dioctanoic acid ester methosulfate]",logarithmic reduction rate,"Escherichia coli; 50 ppm, 5 Mins.",4.12
same,logarithmic reduction rate,"Escherichia coli; 50 ppm, 15 Mins.",>5.62
same,logarithmic reduction rate,"Escherichia coli; 50 ppm, 60 Mins.",>5.76
same,logarithmic reduction rate,"Escherichia coli; 100 ppm, 5 Mins.",>5.58
same,logarithmic reduction rate,"Escherichia coli; 100 ppm, 15 Mins.",>5.62
same,logarithmic reduction rate,"Escherichia coli; 100 ppm, 60 Mins.",>5.76
same,logarithmic reduction rate,"Escherichia coli; 200 ppm, 5 Mins.",>5.58
same,logarithmic reduction rate,"Escherichia coli; 200 ppm, 15 Mins.",>5.62
same,logarithmic reduction rate,"Escherichia coli; 200 ppm, 60 Mins.",>5.76
same,logarithmic reduction rate,"Escherichia coli; 400 ppm, 5 Mins.",>5.58
same,logarithmic reduction rate,"Escherichia coli; 400 ppm, 15 Mins.",>5.62
same,logarithmic reduction rate,"Escherichia coli; 400 ppm, 60 Mins.",>5.76
same,logarithmic reduction rate,"[1]; 50 ppm, 5 Mins.",0.34
same,logarithmic reduction rate,"[1]; 50 ppm, 15 Mins.",0.95
same,logarithmic reduction rate,"[1]; 50 ppm, 60 Mins.",2.04
same,logarithmic reduction rate,"[1]; 100 ppm, 5 Mins.",0.38
same,logarithmic reduction rate,"[1]; 100 ppm, 15 Mins.",0.95
same,logarithmic reduction rate,"[1]; 100 ppm, 60 Mins.",2.05
same,logarithmic reduction rate,"[1]; 200 ppm, 5 Mins.",0.28
same,logarithmic reduction rate,"[1]; 200 ppm, 15 Mins.",0.92
same,logarithmic reduction rate,"[1]; 200 ppm, 60 Mins.",2.16
same,logarithmic reduction rate,"[1]; 400 ppm, 5 Mins.",0.35
same,logarithmic reduction rate,"[1]; 400 ppm, 15 Mins.",0.89
same,logarithmic reduction rate,"[1]; 400 ppm, 60 Mins.",2.29
same,destruction of Trichophyton mentagrophytes,[1]; long contact time (60 minutes),around 2 powers of ten
same,logarithmic reduction rate,"Enterococcus faecium; 50 ppm, 5 Mins.",>6.3
same,logarithmic reduction rate,"Enterococcus faecium; 50 ppm, 15 Mins.",>5.88
same,logarithmic reduction rate,"Enterococcus faecium; 50 ppm, 60 Mins.",>5.96
same,logarithmic reduction rate,"Enterococcus faecium; 100 ppm, 5 Mins.",>6.3
same,logarithmic reduction rate,"Enterococcus faecium; 100 ppm, 15 Mins.",>5.88
same,logarithmic reduction rate,"Enterococcus faecium; 100 ppm, 60 Mins.",>5.96
same,logarithmic reduction rate,"Enterococcus faecium; 200 ppm, 5 Mins.",>6.3
same,logarithmic reduction rate,"Enterococcus faecium; 200 ppm, 15 Mins.",>5.88
same,logarithmic reduction rate,"Enterococcus faecium; 200 ppm, 60 Mins.",>5.96
same,logarithmic reduction rate,"Enterococcus faecium; 400 ppm, 5 Mins.",>6.3
same,logarithmic reduction rate,"Enterococcus faecium; 400 ppm, 15 Mins.",>5.88
same,logarithmic reduction rate,"Enterococcus faecium; 400 ppm, 60 Mins.",>5.96
same,logarithmic reduction rate,"Salmonella enteritidis; 50 ppm, 5 Mins.",<1.8
same,logarithmic reduction rate,"Salmonella enteritidis; 50 ppm, 15 Mins.",3.29
same,logarithmic reduction rate,"Salmonella enteritidis; 50 ppm, 60 Mins.",3.67
same,logarithmic reduction rate,"Salmonella enteritidis; 100 ppm, 5 Mins.",3.96
same,logarithmic reduction rate,"Salmonella enteritidis; 100 ppm, 15 Mins.",5.12
same,logarithmic reduction rate,"Salmonella enteritidis; 100 ppm, 60 Mins.",>5.76
same,logarithmic reduction rate,"Salmonella enteritidis; 200 ppm, 5 Mins.",4.88
same,logarithmic reduction rate,"Salmonella enteritidis; 200 ppm, 15 Mins.",>5.77
same,logarithmic reduction rate,"Salmonella enteritidis; 200 ppm, 60 Mins.",>5.76
same,logarithmic reduction rate,"Salmonella enteritidis; 400 ppm, 5 Mins.",>5.8
same,logarithmic reduction rate,"Salmonella enteritidis; 400 ppm, 15 Mins.",>5.72
same,logarithmic reduction rate,"Salmonella enteritidis; 400 ppm, 60 Mins.",>5.76
same,logarithmic reduction rate,"Microsporum gypseum; 50 ppm, 5 Mins.",>3.52
same,logarithmic reduction rate,"Microsporum gypseum; 50 ppm, 15 Mins.",>3.58
same,logarithmic reduction rate,"Microsporum gypseum; 50 ppm, 60 Mins.",>3.62
same,logarithmic reduction rate,"Microsporum gypseum; 100 ppm, 5 Mins.",>3.52
same,logarithmic reduction rate,"Microsporum gypseum; 100 ppm, 15 Mins.",>3.58
same,logarithmic reduction rate,"Microsporum gypseum; 100 ppm, 60 Mins.",>3.62
same,logarithmic reduction rate,"Microsporum gypseum; 200 ppm, 5 Mins.",>3.52
same,logarithmic reduction rate,"Microsporum gypseum; 200 ppm, 15 Mins.",>3.58
same,logarithmic reduction rate,"Microsporum gypseum; 200 ppm, 60 Mins.",>3.62
same,logarithmic reduction rate,"Microsporum gypseum; 400 ppm, 5 Mins.",>3.52
same,logarithmic reduction rate,"Microsporum gypseum; 400 ppm, 15 Mins.",>3.58
same,logarithmic reduction rate,"Microsporum gypseum; 400 ppm, 60 Mins.",>3.62
same,killing of the fungus Microsporum gypseum,"Microsporum gypseum; concentration of 50 mg/l, shortest contact time",almost completely killed off
